Laboratory results: patent publication US11583575B2, “MHC-bound peptide arrays and methods of use thereof” (Roche Sequencing Solutions, Inc., priority 2016, dated 2023)

Assays:
[1] = target: HLA-A2 (Homo sapiens, UniProt P04439, D140Y/D185E/D98H/E176V/E277Q/G131W/G231S/I119V/I121R/I166T/I218V/N151K/N90K/P208A/P217A/Q86G/Q94H/R138H/R169H); details: binding at pH 6.5 at 4° C. overnight, FIG. 10A/10B
Description: Binding was performed at pH 6.5 at 4° C. overnight.

[2] = system: ESK1 antibody; test: ESK1 antibody binding specificity to peptide-MHC assemblies for WT1 9mer peptides; details: FIG. 7
Description: Because the array of peptides on the surface is spatially-ordered, the sequence of every peptide is immediately known. Each amino acid of the 9 amino acid peptide was substituted for each of the 20 possible amino acids to identify those positions within this peptide that are essential for forming a proper peptide-MHCI complex. […] The amino acids A, F, I, L, M, V, W and P are nonpolar amino acids. The amino acids G, S, Y, C, Q, T, N are polar amino acids. The amino acids R, K and H are basic amino acids. The amino acids D and E are acidic amino acids.

Sequence	peptide-MHC assembly signal, negatively charged HEX-asp-3HEX linker versus standard 5HEX linker [1]	ESK1 antibody binding specificity (relative fluorescence intensity) [2]
RLYDYFTRV	increase in the peptide-MHC assembly signal	
RVPGVAPTL		cross-reactive target
